pEC50: −log10 of the molar value. Read-outs that look alike come from different tables or passages of the source. Marks after values point to notes of the source that are not given here.
Tests used:
[1] = cited from earlier work; for reported CSF distribution: other NNRTIs
[2] = cited from earlier work
[3] = Cabotegravir and rilpivirine concentrations in plasma and CSF by HPLC-MS/MS; format: in vivo, HIV-infected adults; conditions: for Total plasma drug / Total CSF drug / Total CSF/total plasma (%) / Kp / Unbound plasma drug: median (minimum–maximum); for Total CSF/total plasma (%) / Kp: paired samples; for Kp: human, CSF/plasma, intramuscular, Total CSF/total plasma (%)
WT HIV-1 = conditions: cited from earlier work; for in vitro EC50 for WT HIV-1: ref 10 (cabotegravir), 37 (rilpivirine)
plasma proteins = conditions: cited from earlier work
[4] = Phase 1, monthly IM LA, cited from earlier work
P-glycoprotein = conditions: in vitro; ref 42 (cabotegravir), 43 (rilpivirine); cited from earlier work
[5] = tested on: breast cancer resistance protein (BCRP); conditions: in vitro; ref 42 (cabotegravir), 43 (rilpivirine); cited from earlier work
[6] = Q4W, n = 3, 7 ± 3 days after injection
[7] = Q8W, n = 15, 7 ± 3 days after injection

Structure (SMILES) | reported CSF distribution [1] [%] | protein binding in CSF [2] | median CSF level, fold above in vitro EC50 for WT HIV-1 ([3]; Q4W group) [fold] | Total CSF/total plasma (%) ([3]; Q4W, n = 3) | median CSF level, fold above in vitro EC50 for WT HIV-1 ([3]; Q8W group) [fold] | Total CSF/total plasma (%) ([3]; Q8W, n = 13) | Kp ([3]; Q4W, n = 3) | Kp ([3]; Q8W, n = 13) | in vitro EC50 for WT HIV-1 (WT HIV-1) [ng/mL] | bound to plasma proteins (plasma proteins) [%] | time to maximum plasma concentrations [4] | substrate for P-glycoprotein (P-glycoprotein) | substrate for breast cancer resistance protein (BCRP) [5] | other results
Cc1cc(C#N)cc(C)c1Oc1nc(Nc2ccc(C#N)cc2)nc(N)c1Br [etravirine] | 1 | predominantly protein-bound | – | – | – | – | – | – | – | – | – | – | – | –
O=C1Nc2ccc(Cl)cc2[C@@](C#CC2CC2)(C(F)(F)F)O1 [efavirenz] | 0.5 | – | – | – | – | – | – | – | – | – | – | – | – | –
Cc1cc(/C=C/C#N)cc(C)c1Nc1ccnc(Nc2ccc(C#N)cc2)n1 [rilpivirine] | – | – | 6 | 1.32% | 7 | 1.07% | 0.0107 | 0.0132 | 0.27 | 99.7 | approximately 1 week | not a substrate | not a substrate | Total plasma drug [3, 6]: 134 (83.0–187) ng/mL; Total CSF drug ([3]; Q4W, n = 3): 1.67 (1.40–2.47) ng/mL; Total CSF/total plasma (%) ([3]; Q4W, n = 3, listed as Rilpivirine): 1.32 (1.25–1.69) %; Total CSF/total plasma (%) ([3]; Q8W, n = 13, listed as Rilpivirine): 1.07 (NQ to 1.52)^c^, d %; Total plasma drug [3, 7]: 192 (91.7–378) ng/mL; plasma concentration in the participant with non-quantifiable CSF level ([3]; single participant): 117 ng/mL; CSF concentration in the one participant with non-quantifiable level ([3]; single participant, Q8W, not quantifiable): under 1 ng/mL; maximum plasma concentrations (geometric mean) ([4]; after the second dose of rilpivirine): 126 to 168 ng/mL; CSF-to-plasma ratio ([1]; 25 mg administered orally for 60 days): 1.4%
C[C@@H]1CCO[C@H]2Cn3cc(C(=O)NCc4ccc(F)cc4F)c(=O)c(O)c3C(=O)N12 [dolutegravir] | – | – | – | – | – | – | – | – | – | – | – | – | – | CSF inhibitory quotient (ratio of drug concentration to EC50), median [1]: 66–90 fold; CSF-to-plasma ratio ([1]; oral administration at 50 mg once daily): 0.41%
O=C(NCc1c(F)cc(F)cc1F)c1cn2c(c(O)c1=O)C(=O)N1[C@H]3CC[C@H](C3)O[C@@H]1C2 [bictegravir] | – | predominantly protein-bound | – | – | – | – | – | – | – | – | – | – | – | –
C[C@H]1CO[C@@H]2Cn3cc(C(=O)NCc4ccc(F)cc4F)c(=O)c(O)c3C(=O)N12 [cabotegravir] | – | – | 127 | 0.344 (0.312–0.421) % | 106 | 0.304 (0.218–0.449)^c % | 0.003 | 0.0034 | 0.10 | > 99.8 | approximately 1 week | substrate | substrate | Total plasma drug ([3]; Q4W (cabotegravir LA 400 mg + rilpivirine LA 600 mg IM every 4 weeks), n = 3, 7 ± 3 days after injection): 3.02 (2.37–5.10) μg/mL; Total CSF drug [3, 6]: 0.0127 (0.0082–0.0159) μg/mL; Unbound plasma drug [3, 6]: 0.0019 (0.0014–0.0698) μg/mL; Total plasma drug ([3]; Q8W (cabotegravir LA 600 mg + rilpivirine LA 900 mg IM every 8 weeks), n = 15, 7 ± 3 days after injection): 3.92 (1.30–6.41) μg/mL; Total CSF drug ([3]; Q8W, n = 13, 7 ± 3 days after injection): 0.0106 (0.0053–0.0245)^c μg/mL; Unbound plasma drug [3, 7]: 0.0047 (0.0007–0.0220) μg/mL; pEC50 (WT HIV-1; read-out: EC50 for WT HIV-1 clade B): 9.60; maximum plasma concentrations (geometric mean) ([4]; after the fourth dose of cabotegravir): 2200 to 4400 ng/mL

From publication PMC7021098 (Journal of Antimicrobial Chemotherapy, 2019)
